Laboratory results reported in patent US12403128B2, “Compositions and methods for blocking sodium channels” (University of Virginia Patent Foundation, priority 2017, dated 2025).
Converted amounts (≈) assume the structure as drawn. Where a name gives a salt, the structure may show the parent alone.

Columns and labels:
Nav1.6 [1] = target: T1, Nav1.6 (Homo sapiens, UniProt Q9UQD0); assay: Qube assay, NaV1.6; format: cell-based; settings: human isoform; read-out: Qube EP IC50 NaV1.6
Experimental: (§1) Evaluation of Compounds on Human Isoforms Using Qube Assay.
(§2) Compounds were tested using a Qube assay across NaV1.5, NaV1.6 and NaV1.7.

NaV1.6 sodium channels = NaV1.6 sodium channels (Homo sapiens, UniProt Q9UQD0); assay: State-dependent inhibition: steady state inactivation, use-dependent block; format: cell-based; settings: for use-dependent block: 20 Hz
Chain of NaV1.6 sodium channels (Q9UQD0 whole entry): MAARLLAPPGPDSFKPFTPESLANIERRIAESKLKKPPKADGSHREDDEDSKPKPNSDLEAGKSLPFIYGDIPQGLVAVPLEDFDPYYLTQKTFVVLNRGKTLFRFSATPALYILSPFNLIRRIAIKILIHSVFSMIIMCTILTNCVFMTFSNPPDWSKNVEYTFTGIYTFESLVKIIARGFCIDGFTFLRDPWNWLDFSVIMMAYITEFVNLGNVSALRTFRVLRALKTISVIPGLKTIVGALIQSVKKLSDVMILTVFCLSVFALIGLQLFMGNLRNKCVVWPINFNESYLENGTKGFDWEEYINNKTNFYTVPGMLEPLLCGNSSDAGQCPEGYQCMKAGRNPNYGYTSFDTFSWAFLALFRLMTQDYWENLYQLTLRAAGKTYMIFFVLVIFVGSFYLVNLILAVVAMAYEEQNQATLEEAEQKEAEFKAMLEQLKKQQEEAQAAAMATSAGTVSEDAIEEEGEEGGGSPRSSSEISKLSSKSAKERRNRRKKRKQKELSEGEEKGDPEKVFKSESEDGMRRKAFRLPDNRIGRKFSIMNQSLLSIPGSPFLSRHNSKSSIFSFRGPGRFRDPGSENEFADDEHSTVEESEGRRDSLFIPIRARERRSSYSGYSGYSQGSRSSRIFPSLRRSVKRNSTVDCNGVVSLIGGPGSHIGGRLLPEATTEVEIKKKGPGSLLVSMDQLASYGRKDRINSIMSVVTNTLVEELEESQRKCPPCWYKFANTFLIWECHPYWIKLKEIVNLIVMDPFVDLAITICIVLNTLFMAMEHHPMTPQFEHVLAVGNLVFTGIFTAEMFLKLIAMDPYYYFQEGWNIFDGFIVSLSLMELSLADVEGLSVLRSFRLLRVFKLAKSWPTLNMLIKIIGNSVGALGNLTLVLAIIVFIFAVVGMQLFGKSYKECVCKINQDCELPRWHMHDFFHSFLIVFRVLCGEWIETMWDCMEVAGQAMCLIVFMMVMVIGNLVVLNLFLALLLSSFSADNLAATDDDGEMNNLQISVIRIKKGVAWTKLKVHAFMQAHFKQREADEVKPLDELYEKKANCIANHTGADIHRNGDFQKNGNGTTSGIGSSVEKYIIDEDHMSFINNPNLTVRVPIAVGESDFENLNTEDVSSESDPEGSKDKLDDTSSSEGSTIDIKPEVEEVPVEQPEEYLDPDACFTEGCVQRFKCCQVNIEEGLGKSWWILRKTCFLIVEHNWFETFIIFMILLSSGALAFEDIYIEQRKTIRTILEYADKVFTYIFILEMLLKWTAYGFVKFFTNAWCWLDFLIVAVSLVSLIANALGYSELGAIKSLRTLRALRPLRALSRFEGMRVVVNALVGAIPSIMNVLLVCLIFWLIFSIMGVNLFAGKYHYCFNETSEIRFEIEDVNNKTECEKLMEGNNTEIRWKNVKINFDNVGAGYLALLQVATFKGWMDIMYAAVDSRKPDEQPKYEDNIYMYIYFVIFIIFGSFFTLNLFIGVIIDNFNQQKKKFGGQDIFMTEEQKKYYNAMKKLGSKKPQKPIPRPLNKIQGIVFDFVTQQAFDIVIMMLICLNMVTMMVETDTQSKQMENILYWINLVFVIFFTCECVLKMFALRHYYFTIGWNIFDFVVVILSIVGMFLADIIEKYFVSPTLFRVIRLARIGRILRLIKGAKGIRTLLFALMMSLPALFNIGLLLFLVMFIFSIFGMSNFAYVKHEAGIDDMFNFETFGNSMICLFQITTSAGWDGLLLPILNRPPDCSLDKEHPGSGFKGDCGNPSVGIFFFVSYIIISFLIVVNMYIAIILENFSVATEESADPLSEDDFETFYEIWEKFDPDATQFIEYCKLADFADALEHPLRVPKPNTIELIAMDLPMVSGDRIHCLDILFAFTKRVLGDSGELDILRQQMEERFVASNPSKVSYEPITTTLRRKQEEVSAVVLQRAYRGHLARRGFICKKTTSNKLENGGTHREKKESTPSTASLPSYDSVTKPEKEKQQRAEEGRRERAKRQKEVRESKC
Description: Evaluation of Compounds as State-Dependent Inhibitors
Use dependent block is an important characteristic for AED activity since it allows increased inhibition of sodium channels during increased neuronal activity as is observed during seizures.

[2] = tested on: knock-in mouse carrying the human N1768D gain of function NaV1.6 mutation (spontaneous seizures); assay: Seizure suppression in NaV1.6 mutation knock-in mouse model; format: in vivo; settings: 100 mg/kg
Experimental: In Vivo Evaluation for Seizure Suppression in a Human Gain of Function NaV1.6 Mutation Knock-In Mouse Model.
Compounds were tested in vivo for seizure suppression in a knock-in mouse carrying the human N1768D gain of function NaV1.6 mutation. These knock-in mice experience spontaneous seizures. All test compounds were evaluated at 100 mg/kg.

[3] = target: T2, rat NaV1.6 sodium channels (Rattus norvegicus, UniProt O88420); assay: Dose response on rat NaV1.6 channels in HEK293 cells; format: cell-based; settings: rat Nav1.6 channel
T2 construct: expressed in transfected cells; host or cells: HEK293
Description: Evaluation of Dose Response and Activation Response Compounds on Rat NaV1.6 Channels in Human Embryonic Kidney Cells (HEK293).

NaV1.5 [4] = target: T3, NaV1.5 (Homo sapiens, UniProt Q14524); assay: High-throughput flux assay, NaV1.5; format: cell-based; settings: human isoform;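 note: IC50 from the flux assay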
T3 sequence (Q14524 whole entry, canonical isoform): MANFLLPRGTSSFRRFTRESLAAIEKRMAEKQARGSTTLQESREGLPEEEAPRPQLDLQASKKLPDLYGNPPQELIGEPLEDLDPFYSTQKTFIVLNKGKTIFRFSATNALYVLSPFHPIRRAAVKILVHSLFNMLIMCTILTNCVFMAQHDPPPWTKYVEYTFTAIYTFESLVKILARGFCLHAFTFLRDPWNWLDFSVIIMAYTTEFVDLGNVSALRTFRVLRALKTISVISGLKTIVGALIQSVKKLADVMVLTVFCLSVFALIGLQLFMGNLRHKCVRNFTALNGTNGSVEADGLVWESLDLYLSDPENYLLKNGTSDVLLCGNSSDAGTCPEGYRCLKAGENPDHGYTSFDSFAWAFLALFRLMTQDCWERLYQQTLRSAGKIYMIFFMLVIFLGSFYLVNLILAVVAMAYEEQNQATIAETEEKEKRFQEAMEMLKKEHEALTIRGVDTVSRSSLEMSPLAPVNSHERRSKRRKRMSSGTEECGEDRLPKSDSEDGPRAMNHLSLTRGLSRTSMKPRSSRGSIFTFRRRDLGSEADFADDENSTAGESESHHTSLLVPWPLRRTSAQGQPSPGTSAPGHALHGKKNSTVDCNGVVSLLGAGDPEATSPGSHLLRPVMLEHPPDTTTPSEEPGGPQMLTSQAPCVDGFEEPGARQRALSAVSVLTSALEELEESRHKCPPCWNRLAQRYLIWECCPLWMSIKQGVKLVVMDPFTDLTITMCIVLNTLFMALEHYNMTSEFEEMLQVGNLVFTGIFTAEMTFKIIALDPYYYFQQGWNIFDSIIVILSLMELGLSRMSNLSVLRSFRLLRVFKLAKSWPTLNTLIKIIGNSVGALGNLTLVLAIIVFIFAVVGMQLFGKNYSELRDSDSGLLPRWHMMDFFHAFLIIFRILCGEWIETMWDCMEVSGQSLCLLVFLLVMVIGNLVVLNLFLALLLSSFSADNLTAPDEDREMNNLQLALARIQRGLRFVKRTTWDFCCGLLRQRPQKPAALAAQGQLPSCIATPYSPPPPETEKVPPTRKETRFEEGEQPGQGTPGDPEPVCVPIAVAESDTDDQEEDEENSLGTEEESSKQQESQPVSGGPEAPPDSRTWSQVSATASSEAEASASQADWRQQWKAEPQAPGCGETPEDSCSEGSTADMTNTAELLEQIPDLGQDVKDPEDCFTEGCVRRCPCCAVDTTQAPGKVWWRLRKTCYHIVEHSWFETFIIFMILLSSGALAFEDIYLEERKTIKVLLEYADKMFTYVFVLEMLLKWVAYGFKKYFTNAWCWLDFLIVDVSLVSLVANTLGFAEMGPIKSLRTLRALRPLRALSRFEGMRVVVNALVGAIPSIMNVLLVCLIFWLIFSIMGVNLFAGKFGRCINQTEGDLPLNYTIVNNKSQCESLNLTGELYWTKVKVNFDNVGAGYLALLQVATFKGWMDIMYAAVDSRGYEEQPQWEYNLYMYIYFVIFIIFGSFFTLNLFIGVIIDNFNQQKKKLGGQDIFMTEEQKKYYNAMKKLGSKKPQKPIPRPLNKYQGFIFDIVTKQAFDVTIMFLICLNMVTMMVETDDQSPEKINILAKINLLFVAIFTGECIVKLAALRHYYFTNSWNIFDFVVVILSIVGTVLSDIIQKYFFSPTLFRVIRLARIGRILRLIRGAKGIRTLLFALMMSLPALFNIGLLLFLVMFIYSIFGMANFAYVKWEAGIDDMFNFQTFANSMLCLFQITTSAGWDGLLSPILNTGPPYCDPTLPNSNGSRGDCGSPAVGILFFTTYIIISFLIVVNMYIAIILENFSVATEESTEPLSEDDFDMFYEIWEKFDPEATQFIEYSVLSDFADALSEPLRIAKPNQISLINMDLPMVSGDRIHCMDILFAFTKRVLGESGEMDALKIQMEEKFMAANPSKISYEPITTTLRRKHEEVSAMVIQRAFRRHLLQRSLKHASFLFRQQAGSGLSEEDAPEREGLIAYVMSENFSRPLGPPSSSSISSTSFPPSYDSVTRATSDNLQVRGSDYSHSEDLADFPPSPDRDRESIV
Experimental: (§3) Evaluation of Compounds on Human Isoforms Using a High-Throughput Flux Assay
(§4) Compounds were tested using a high-throughput flux assay across Nav1.5, Nav1.6 and Nav1.7.

Nav1.6 [5] = target: T1, Nav1.6; assay: % block of Nav1.6 at 100 μM and IC50 (NaV1.6); format: cell-based; settings: for inhibition at 100 µM: 100 μM compound
Experimental: Evaluation of Compounds for % Block of Nav1.6 at 100 μM
Compounds of the present invention were tested in an assay for % block of Nav1.6 at a concentration of 100 μM compound. Table 1 also indicates the melting point ranges for some compounds.
Some such compounds correspond to a compound of Formula III, wherein R9 is substituted with a halogen, a nitro or a CF3 group. In comparing MV1089, MV1090 and MV1091, it is shown that compounds of Formula III where R3 is H result in higher % block than when R3 is substituted. e.g., by OCH3. In comparing MV1066, MV1084, MV1085, MV1086, MV1087 and MV1088, it is shown that compounds of Formula III where R9 is halogen, a nitro or a CF3 group result in higher % block than when R9 is OCH3, COOH or CH3.

NaV1.5 [6] = target: T3, NaV1.5; assay: Qube assay, NaV1.5; format: cell-based; settings: human isoform; read-out: Qube EP IC50 NaV1.5
Experimental: as §1, §2

NaV1.7 [7] = target: T4, NaV1.7 (Homo sapiens, UniProt Q15858); assay: High-throughput flux assay, NaV1.7; format: cell-based; settings: human isoform;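 note: IC50 from the flux assay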
Experimental: as §3, §4

Nav1.6 [8] = target: T1, Nav1.6; assay: High-throughput flux assay, Nav1.6; format: cell-based; settings: human isoform;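 note: IC50 from the flux assay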
Experimental: as §3, §4

NaV1.7 [9] = target: T4, NaV1.7; assay: Qube assay, NaV1.7; format: cell-based; settings: human isoform; read-out: Qube EP IC50 NaV1.7
Experimental: as §1, §2

CYP3A4 = CYP3A4 (Homo sapiens, UniProt P08684); assay: Metabolic stability (CYP3A4); format: in vitro ADME; settings: CYP3A4, 1 hr
Chain of CYP3A4 (P08684 whole entry, species assumed): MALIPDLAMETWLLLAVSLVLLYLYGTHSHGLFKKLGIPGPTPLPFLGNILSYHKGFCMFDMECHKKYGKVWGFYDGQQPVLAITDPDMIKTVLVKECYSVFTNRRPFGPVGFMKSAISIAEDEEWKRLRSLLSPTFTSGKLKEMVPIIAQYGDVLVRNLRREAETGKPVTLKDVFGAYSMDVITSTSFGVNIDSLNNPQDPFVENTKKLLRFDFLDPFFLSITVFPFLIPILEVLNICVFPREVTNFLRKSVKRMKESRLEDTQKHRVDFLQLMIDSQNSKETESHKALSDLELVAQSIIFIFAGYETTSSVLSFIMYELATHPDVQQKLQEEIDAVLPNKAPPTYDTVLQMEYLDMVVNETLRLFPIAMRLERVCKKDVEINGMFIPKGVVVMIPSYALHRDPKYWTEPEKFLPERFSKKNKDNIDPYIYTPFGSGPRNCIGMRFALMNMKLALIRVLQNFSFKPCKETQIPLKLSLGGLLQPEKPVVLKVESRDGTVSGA

Solubility = format: physicochemical
[10] = Tox, comparison compounds (species not stated); format: in vivo
Chemical stability = format: physicochemical; settings: after 24 h at pH 7.4
[11] = tested on: maximal electroshock (MES) seizures; assay: MES test, comparison compounds (species not stated); format: in vivo
Description: The MES is a model for generalized tonic-clonic seizures and provides an indication of a compound's ability to prevent seizure spread when all neuronal circuits in the brain are maximally active. These seizures are highly reproducible and are electrophysiologically consistent with human seizures. For an MES test, a drop of anesthetic/electrolyte solution (0.5% tetracaine hydrochloride in 0.9% saline) is applied to the eyes of each animal prior to placement of corneal electrodes Electrical stimulus in the MES test may be 50 mA, 60 Hz, for mice and 150 mA, 60 Hz, for rats delivered for 0.2 s. Abolition of the hindleg tonic extensor component of the seizure was used as the endpoint. Mice may be initially tested at various intervals following various doses, e.g., 30, 100 and 300 mg/kg of test compound given by intraperitoneal (IP) injection while rats are initially screened at a fixed dose of 30 mg/kg

[12] = tested on: Metrazol-induced clonic seizures; assay: scM test, comparison compounds (species not stated); format: in vivo
Experimental: Subcutaneous injection of the convulsant Metrazol produces clonic seizures in laboratory animals. […] Animals may be pretreated with various doses of the test compound given by ip injection. At a previously determined TPE (time to peak) of the test compound, the dose of Metrazol which will induce convulsions in 97% of animals (CD97:85 mg/kg mice) may be injected into a loose fold of skin in the midline of the neck. The animals may be placed in isolation cages to minimize stress and observed for the next 30 min for the presence or absence of a seizure. An episode of clonic spasms, approximately 3-5 seconds, of the fore and/or hindlimbs, jaws, or vibrissae may be taken as the endpoint. […] The scM test represents acute animal seizures.

[13] = tested on: 6 Hz psychomotor seizures; assay: 6 Hz test, comparison compounds (species not stated); format: in vivo; settings: species and current not stated
Experimental: Compounds were tested using a 6 Hz psychomotor seizure test. […] For example, both the MES and scM models are insensitive to levetiracetam, a compound considered potentially useful in the management of refractory seizures. […] Thus, the 6 Hz test can serve as a therapy resistant screening paradigm of acute seizure activity.

T1 sequence (Q9UQD0 whole entry, canonical isoform): as the sequence (Q9UQD0 whole entry) above

Row | Structure (SMILES) | IC50 (Nav1.6 [1]) | shift of half maximal voltage for inactivation (V1/2) compared to control (NaV1.6 sodium channels; 10 μM) | use-dependent block (NaV1.6 sodium channels) | seizure suppression [2] | IC50 [3] | IC50 (NaV1.5 [4]) | inhibition at 100 µM (Nav1.6 [5]) | IC50 (NaV1.5 [6]) | IC50 (NaV1.7 [7]) | IC50 (Nav1.6 [8]) | IC50 (NaV1.7 [9]) | Tox [10] | ED50 [11] | ED50 [12] | ED50 [13] | further results
1 | Cc1nc(-c2cccc(Cl)c2)[nH]c1-c1ccccc1 [MV1505, 2-(3-chlorophenyl)-4-methyl-5-phenyl-1H-imidazole] | 2.72 µM | −12.7 mV | profound use-dependent block | suppressed seizures | 5.4 µM | 3.64 µM | 100% | 10 µM | 5.22 µM | 1.59 µM | 8.04 µM |  |  |  |  | 
2 | Cc1nc(-c2cccc(C(F)(F)F)c2)[nH]c1-c1ccccc1 [MV1504, 4-methyl-5-phenyl-2-[3-(trifluoromethyl)phenyl]-1H-imidazole hydrochloride] | 3.32 µM | −10.9 mV | profound use-dependent block | suppressed seizures | 12 µM | 4.32 µM | 100% | 13.3 µM | 5.72 µM | 2.07 µM | 7.95 µM |  |  |  |  | 
3 | c1ccc(-c2c[nH]c(-c3ccccc3)n2)cc1 [MV1115] |  |  |  |  |  |  |  |  |  |  |  | 126 mg/kg | 61.7 mg/kg | 160 mg/kg | 47.2 mg/kg | recovery at 1 hr (CYP3A4): 87%; solubility (Solubility; pH 3, aqueous buffer): 237 µM (≈ 52.2 µg/mL); solubility (Solubility; pH 7.4, aqueous buffer): 175 µM (≈ 38.5 µg/mL); recovery at 24 h (Chemical stability): 94%; IC50 (Nav1.6 [5]; comparison compounds, read-out: IC50 (NaV1.6)): 32 µM
4 | COc1ccc(-c2nc(-c3ccccc3)c[nH]2)cc1 [MV1118] |  |  |  |  |  |  |  |  |  |  |  | 223 mg/kg | 46.8 mg/kg | 142 mg/kg | 52.2 mg/kg | 
5 | Cc1nc(-c2ccc(Cl)cc2)[nH]c1-c1ccccc1 [MV1502, 2-(4-chlorophenyl)-4-methyl-5-phenyl-1H-imidazole hydrochloride] | 0.749 µM |  |  | suppressed seizures | 1.2 µM | 4.89 µM | 95% | 12.7 µM | 4.76 µM | 1.61 µM | 3.88 µM |  |  |  |  | shift of half maximal voltage for inactivation (V1/2) compared to control (NaV1.6 sodium channels; 1 μM): −9.3 mV
